Assay results published in patent US20130171198A1, “ANTIMICROBIAL AND VULNERARY ACTION PHARMACEUTICAL COMPOSITION FOR EXTERNAL APPLICATION AND ITS PRODUCTION PROCESS” (priority 2010, published 2013).

What was measured:
[1] = Fosfomycin sorption by BHSiO2 particles; type: physicochemical
From the text: Fosfomycin sorption rate by BHSiO2 particles was 20-25%.

[2] = Incision model, guiney pigs, external application of powder; type: in vivo; details: for Incision length (cm) Me: powder form, external application daily
Procedure: (§1) The experiments were conducted using adult rabbits “Chinchilla” (males, weight 3-3.5 kg) and random bred guiney pigs (males, weight 0.8-0.9 kg) according to the “Regulations for test animals use” (USSR Ministry of health order supplement #755 from 12.08. 1977). There have been made several incisions with a sterile scalpel on the left and right side of the depilated coupling area (1.5% novocain solution was used for local anesthesia); incision 2 cm long and 0.8 cm deep with muscular layer seizure for guiney pigs and 2 cm long and 1 cm deep with muscular layer seizure for rabbits. Each day in 8 days period (starting with the very first day) the wounds of the animals control group was bathed with a sterile normal saline solution, were covered with a sterile tissue fixed with a plaster. The wounds of the test group animals were bathed with a sterile saline solution, then dried and then dusted with fosfomycin sterile powder uniform layer (2-3 mm) or a same layer pharmaceutical composition (for guiney pigs), the wounds of the test rabbits were irrigated with a sterile 2.5% fosfomycin solution or sterile 5% pharmaceutical composition suspension, after that they were dried and covered with a sterile tissue fixed with a plaster. The regenerative process dynamics was monitored during 9 days. The medics measured the length of the wound open area and made a visual evaluation of wound edges and walls, the presence and character of the exudates, necrosis presence. The test results can be seen in Tables No 2 and No 3. The statistical data processing has been made with a program Statistica 6.0. The experimental data are presented as median (Me), Low and High quartile (LQ-HQ), the difference authenticity has been calculated using Student t-criterion with p<0.05 values.

[3] = Incision model, rabbits, external application of solution/suspension; type: in vivo; details: for Incision length (cm) Me: 2.5% fosfomycin solution or 5% composition suspension
Procedure: as §1

[4] = tested on: infected S. aureus thermal burn; test: Infected thermal burn model, guiney pigs; type: in vivo; details: for Necrosis area (cm^2) / Thermal burn area (cm^2): 2.5% solution or 5% suspension
Procedure: The experiments were conducted using adult rabbits “Chinchilla” (males, weight 3-3.5 kg) and random bred guiney pigs (males, weight 0.8-0.9 kg) according to the “Regulations for test animals use” (USSR Ministry of health order supplement #755 from 12.08. 1977). There have been made several skin integument burnings with a warmed up on the burner flame metallic applicator on the left and right side of the depilated coupling area (1.5% novocain solution was used for local anesthesia) by attaching it to the skin and holding for 40 seconds. In the center of the ambustial area there has been intracutaneously inserted Staphylococcus aureus (ATCC No 25923 F-49) daily suspension with a 0.1 ml volume in a 10^10 CFU/ml dosage. Each day in 13 days period (starting with the very first day) the burnings of the animals control group was bathed with a sterile normal saline solution, dried and covered with a sterile tissue fixed with a plaster. The burnings of the test animals were irrigated with a sterile 2.5% fosfomycin solution or sterile 5% pharmaceutical composition suspension, after that they were dried and covered with a sterile tissue fixed with a plaster. The burnings condition dynamics was monitored during 14 days. The medics measured the burning wound surface and necrosis area in the center of the burning wound. You may see the results in the table No 4. The statistical data processing has been made with a program Statistica 6.0. The experimental data are presented as median (Me), Low and High quartile (LQ-HQ), the difference authenticity has been calculated using Student t-criterion with p<0.05 values.

[5] = 2.5% solution / 5% water suspension

## C[C@@H]1O[C@@H]1P(=O)(O)O [Fosfomycin, fosfomycin]
[1]
  Fosfomycin sorption rate by BHSiO2 particles: 20-25%
[2]; Day 2
  Incision length (cm) Me: 0.9 cm
[2]; Day 6
  Incision length (cm) Me: 0.5 cm
[2]; Day 9
  Incision length (cm) Me: 0.3 cm
[2]; powder forms
  Incisions regeneration process versus control group: authentically increase incisions regeneration process comparing to the control group
[3]; Day 2
  Incision length (cm) Me: 0.5 cm
[3]; Day 6
  Incision length (cm) Me: 0.4 cm
[3]; Day 9
  Incision length (cm) Me: 0.25 cm
[3]; [5]
  Incisions regeneration process versus control group: authentically increase incisions regeneration process comparing to the control group
[4]; [5]
  Infected S. aureus thermal burn regeneration process versus control group: authentically increase infected S. aureus thermal burn regeneration process comparing to the control group
[4]; Day 2
  Necrosis area (cm^2): 0.0 cm^2
  Thermal burn area (cm^2): 1.2 cm^2
[4]; Day 6
  Necrosis area (cm^2): 0.3 cm^2
  Thermal burn area (cm^2): 0.8 cm^2
[4]; Day 9
  Necrosis area (cm^2): 0.25 cm^2
  Thermal burn area (cm^2): 0.7 cm^2
[4]; Day 14
  Necrosis area (cm^2): 0.2 cm^2
  Thermal burn area (cm^2): 0.4 cm^2
